Patent US9085520B2, “Composition for treating diabetes and metabolic diseases and a preparation method thereof” (KAOHSIUNG MEDICAL UNIVERSITY, priority 2011, dated 2015)
Where “and” joins values, the source holds several entries; their conditions need not be identical. Identical values can stand only once.

Test system: 3T3-L1 adipocytes
Assay: glucose consumption (remaining glucose) in culture medium of 3T3-L1 adipocytes
Format: cell-based
Conditions: 30 μg/ml; culture medium of 3T3-L1 adipocytes after 24 hours; means ± SD, N = 3; control 310 ± 4.0
Protocol: After precursor adipocytes 3T3-L1 were induced as the matured adipocytes, culture medium with glucose (concentration of 300 mg/dl) and drugs were added, and the concentration of the remaining glucose in the culture medium were measured after 24 hours.
Adipose tissues are major sites for postprandial glucose uptake. Therefore, in vitro anti-diabetic screening model based on measuring glucose consumption after 24 hours in culture medium of 3T3-L1 adipocytes was developed. […] Accordingly, 60 chalcone derivatives with and without substitutions on A-ring were examined in our developed model. […] Structure-activity relationship (SAR) analyses data are also determined.

In order of rising “remaining glucose concentration in culture medium after 24 hours” value (“remaining glucose concentration” for short):
1. CCc1ccc(CCOc2ccc(CC3SC(=O)NC3=O)cc2)nc1 (stereo not shown) [Pioglitazone, pioglitazone, reference compound]  230 ± 13.5 mg/dL
2. COc1cccc(/C=C/C(=O)c2cccc(I)c2)c1 [Compound 57, (E)-1-(3-iodophenyl)-3-(3-methoxyphenyl)prop-2-en-1-one]  246 ± 11.3 mg/dL
3. COc1ccc(/C=C/C(=O)c2cccc(Br)c2)cc1 [Compound 17, (E)-1-(3-bromophenyl)-3-(4-methoxyphenyl)prop-2-en-1-one]  248 ± 8.0 mg/dL
4. COc1cccc(/C=C/C(=O)c2ccccc2Br)c1 [Compound 13, (E)-1-(2-bromophenyl)-3-(3-methoxyphenyl)prop-2-en-1-one]  249 ± 5.2 mg/dL
5. O=C(/C=C/c1ccc(OCc2ccccc2)cc1)c1ccccc1I [Compound 53, (E)-3-(4-(benzyloxy)phenyl)-1-(2-iodophenyl)prop-2-en-1-one]  249 ± 3.6 mg/dL
6. O=C(/C=C/c1cccc(OCc2ccccc2)c1)c1cc(Br)ccc1O [Compound 22, (E)-3-(3-(benzyloxy)phenyl)-1-(5-bromo-2-hydroxyphenyl)prop-2-en-1-one]  252 ± 0.1 mg/dL
7. O=C(/C=C/c1ccccc1)c1cc(Br)ccc1O [Compound 19, (E)-1-(5-bromo-2-hydroxyphenyl)-3-phenylprop-2-en-1-one]  253 ± 7.8 mg/dL
8. COc1ccc(/C=C/C(=O)c2cc(Br)ccc2O)cc1 [Compound 20, (E)-1-(5-bromo-2-hydroxyphenyl)-3-(4-methoxyphenyl)prop-2-en-1-one]  254 ± 17.6 mg/dL
9. COc1ccc(/C=C/C(=O)c2cccc(Cl)c2)cc1 [Compound 45, (E)-1-(3-chlorophenyl)-3-(4-methoxyphenyl)prop-2-en-1-one]  255 ± 27.1 mg/dL
10. O=C(/C=C/c1cccc(OCc2ccccc2)c1)c1ccccc1O [Compound 11, (E)-3-(3-(benzyloxy)phenyl)-1-(2-hydroxyphenyl)prop-2-en-1-one]  256 ± 13.1 mg/dL
11. O=C(/C=C/c1ccc(OCc2ccccc2)cc1)c1cc(Br)ccc1O [Compound 23, (E)-3-(4-(benzyloxy)phenyl)-1-(5-bromo-2-hydroxyphenyl)prop-2-en-1-one]  256 ± 1.3 mg/dL
12. COc1cccc(/C=C/C(=O)c2ccc(Br)cc2)c1 [Compound 16, (E)-1-(4-bromophenyl)-3-(3-methoxyphenyl)prop-2-en-1-one]  257 ± 10.0 mg/dL
13. COc1ccc(/C=C/C(=O)c2ccccc2F)cc1 [Compound 28, (E)-1-(2-fluorophenyl)-3-(4-methoxyphenyl)prop-2-en-1-one]  259 ± 0.3 mg/dL
14. O=C(/C=C/c1ccc(OCc2ccccc2)cc1)c1ccccc1O [Compound 25, (E)-3-(4-(benzyloxy)phenyl)-1-(2-hydroxyphenyl)prop-2-en-1-one]  260 ± 3.8 mg/dL
15. COc1cccc(/C=C/C(=O)c2cc(Br)ccc2O)c1 [Compound 21, (E)-1-(5-bromo-2-hydroxyphenyl)-3-(3-methoxyphenyl)prop-2-en-1-one]  260 ± 3.3 mg/dL
16. COc1ccc(/C=C/C(=O)c2ccc(Br)cc2)cc1 [Compound 18, (E)-1-(4-bromophenyl)-3-(4-methoxyphenyl)prop-2-en-1-one]  261 ± 12.7 mg/dL
17. COc1ccc(/C=C/C(=O)c2ccccc2)cc1 [Compound 7, (E)-3-(4-methoxyphenyl)-1-phenylprop-2-en-1-one]  261 ± 3.2 mg/dL
18. COc1cccc(/C=C/C(=O)c2cccc(Br)c2)c1 [Compound 14, (E)-1-(3-bromophenyl)-3-(3-methoxyphenyl)prop-2-en-1-one]  262 ± 2.2 mg/dL
19. CN(CCOc1ccc(CC2SC(=O)NC2=O)cc1)c1ccccn1 (stereo not shown) [Rosiglitazone, rosiglitazone, reference compound]  263 ± 23.9 mg/dL
20. O=C(/C=C/c1ccc(O)cc1)c1ccccc1 [Compound 29, (E)-3-(4-hydroxyphenyl)-1-phenylprop-2-en-1-one]  263 ± 5.6 mg/dL
21. COc1cccc(/C=C/C(=O)c2cc(Cl)ccc2O)c1 [Compound 38, (E)-1-(5-chloro-2-hydroxyphenyl)-3-(3-methoxyphenyl)prop-2-en-1-one]  266 ± 23.3 mg/dL
22. O=C(/C=C/c1ccc(O)cc1)c1ccccc1O [Compound 24, (2E)-1-(2-hydroxyphenyl)-3-(4-hydroxyphenyl)-2-propen-1-one]  267 ± 3.4 mg/dL
23. COc1cccc(/C=C/C(=O)c2ccc(Cl)cc2)c1 [Compound 15, (E)-1-(4-chlorophenyl)-3-(3-methoxyphenyl)prop-2-en-1-one]  272 ± 22.4 mg/dL
24. COc1cccc(/C=C/C(=O)c2ccc(I)cc2)c1 [Compound 60, (E)-1-(4-iodophenyl)-3-(3-methoxyphenyl)prop-2-en-1-one]  274 ± 22.5 mg/dL
25. O=C(/C=C/c1ccc(OCc2ccccc2)cc1)c1ccccc1 [Compound 31, (E)-3-(4-(benzyloxy)phenyl)-1-phenylprop-2-en-1-one]  274 ± 13.0 mg/dL
26. O=C(/C=C/c1ccc2c(c1)OCO2)c1ccccc1O [Compound 33, (E)-3-(benzo[d][1,3]dioxol-5-yl)-1-(2-hydroxyphenyl)prop-2-en-1-one]  279 ± 7.6 mg/dL
27. COc1ccc(/C=C/C(=O)c2cc(Cl)ccc2O)cc1 [Compound 37, (E)-1-(5-chloro-2-hydroxyphenyl)-3-(4-methoxyphenyl)prop-2-en-1-one]  282 ± 16.4 mg/dL
28. O=C(/C=C/c1cccc(OCc2ccccc2)c1)c1ccc(O)cc1O [Compound 34, (E)-3-(3-(benzyloxy)phenyl)-1-(2,4-dihydroxyphenyl)prop-2-en-1-one]  283 ± 2.6 mg/dL
29. COc1cccc(/C=C/C(=O)c2ccccc2F)c1 [Compound 39, (E)-1-(2-fluorophenyl)-3-(3-methoxyphenyl)prop-2-en-1-one]  285 ± 4.4 mg/dL
30. O=C(/C=C/c1cccc(OCc2ccccc2)c1)c1ccccc1 [Compound 30, (E)-3-(3-(benzyloxy)phenyl)-1-phenylprop-2-en-1-one]  285 ± 8.2 mg/dL
31. COc1cccc(/C=C/C(=O)c2cccc(Cl)c2)c1 [Compound 44, (E)-1-(3-chlorophenyl)-3-(3-methoxyphenyl)prop-2-en-1-one]  287 ± 13.4 mg/dL
32. O=C(/C=C/c1ccccc1)c1cccc(Cl)c1 [Compound 43, (E)-1-(3-chlorophenyl)-3-phenylprop-2-en-1-one]  291 ± 9.2 mg/dL
33. O=C(/C=C/c1ccccc1)c1ccc(I)cc1 [Compound 58, (E)-1-(4-iodophenyl)-3-phenylprop-2-en-1-one]  292 ± 5.3 mg/dL
34. COc1ccc(/C=C/C(=O)c2ccc(Cl)cc2)cc1 [Compound 47, (E)-1-(4-chlorophenyl)-3-(4-methoxyphenyl)prop-2-en-1-one]  293 ± 7.8 mg/dL
35. O=C(/C=C/c1ccccc1)c1cccc(I)c1 [Compound 55, (E)-1-(3-iodophenyl)-3-phenylprop-2-en-1-one]  294 ± 7.3 mg/dL
36. O=C(/C=C/c1ccccc1)c1ccc(Cl)cc1 [Compound 46, (E)-1-(4-chlorophenyl)-3-phenylprop-2-en-1-one]  295 ± 8.8 mg/dL
37. O=C(/C=C/c1ccccc1)c1ccc(Br)cc1 [Compound 50, (E)-1-(4-bromophenyl)-3-phenylprop-2-en-1-one]  295 ± 5.8 mg/dL
38. COc1cccc(/C=C/C(=O)c2cc(F)ccc2O)c1 [Compound 35, (E)-1-(5-fluoro-2-hydroxyphenyl)-3-(3-methoxyphenyl)prop-2-en-1-one]  297 ± 9.3 mg/dL
39. COc1ccc(/C=C/C(=O)c2cccc(F)c2)cc1 [Compound 40, (E)-1-(3-fluorophenyl)-3-(4-methoxyphenyl)prop-2-en-1-one]  298 ± 15.5 mg/dL
40. O=C(/C=C/c1ccccc1)c1cccc(Br)c1 [Compound 49, (E)-1-(3-bromophenyl)-3-phenylprop-2-en-1-one]  299 ± 7.3 mg/dL

With `COc1ccc(/C=C/C(=O)c2cccc(I)c2)cc1` [Compound 56, (E)-1-(3-iodophenyl)-3-(4-methoxyphenyl)prop-2-en-1-one] the “remaining glucose concentration” value was 233 mg/dL and 233 ± 3.5 mg/dL.
For `O=C(/C=C/c1cccc(OCc2ccccc2)c1)c1ccccc1I` [Compound 54, (E)-3-(3-(benzyloxy)phenyl)-1-(2-iodophenyl)prop-2-en-1-one], the “remaining glucose concentration” value was 238 mg/dL and 238 ± 1.1 mg/dL.

Same assay, conditions: 30 μg/ml; culture medium of 3T3-L1 adipocytes after 24 hours; means ± SD, N = 3; control 310 ± 4.0; listed as pioglitazone

For `CCc1ccc(CCOc2ccc(CC3SC(=O)NC3=O)cc2)nc1` (stereo not shown) [Pioglitazone, pioglitazone, reference compound], the “remaining glucose concentration” value was 230 mg/dL.

Same assay, conditions: 30 μg/ml; culture medium of 3T3-L1 adipocytes after 24 hours; means ± SD, N = 3; control 310 ± 4.0; listed as rosiglitazone

`CN(CCOc1ccc(CC2SC(=O)NC2=O)cc1)c1ccccn1` (stereo not shown) [Rosiglitazone, rosiglitazone, reference compound] was tested, and the “remaining glucose concentration” value was 263 mg/dL.

Same assay, conditions: FIG. 1; 30 μg/ml, medium glucose 300 mg/dl, remaining glucose after 24 hours

In the case of `COc1cccc(/C=C/C(=O)c2ccc(Br)cc2)c1` [Compound 16, (E)-1-(4-bromophenyl)-3-(3-methoxyphenyl)prop-2-en-1-one], the “glucose absorption activity of adipocytes 3T3-L1 (anti-hyperglycemic ability)” value is reported as “not significantly different”.
For `COc1cccc(/C=C/C(=O)c2ccc(Cl)cc2)c1` [Compound 15, (E)-1-(4-chlorophenyl)-3-(3-methoxyphenyl)prop-2-en-1-one], the “glucose absorption activity of adipocytes 3T3-L1 (anti-hyperglycemic ability)” value was “not significantly different”.
